This assay addresses T1, Human PD-L1/PD-1 (Homo sapiens, UniProt Q9NZQ7).
T1 construct: TVMV protease cleavage site (C); made in house; host or cells: HEK293T cells
Briefly: HTRF Human PD-L1/PD-1 binding assay (PD-1-Ig/PD-L1-His). Conditions: PD-L1-His 10 nM, PD-1-Ig 20 nM. A digest of the protocol:
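Soluble HEK293T-expressed proteins: hPD-L1-His 10 nM, hPD-1-Ig 20 nM final. Cpd + PD-L1 15 min, + PD-1 15 min, + Eu anti-Ig 1 nM/APC anti-His 20 nM 30 min. Buffer dPBS, 0.1% BSA, 0.05% Tween-20. TR-FRET 665/620.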
Background: TR-FRET usually uses a lanthanide donor and a delayed reading to cut background.

Setting [1] is: class symbol, read-out: HTRF Human PD-L1/PD-1 Binding Assay IC50 Range.

Consider 11 compounds from patent publication US10538555B2, “Macrocyclic inhibitors of the PD-1/PD-L1 and CD80(B7-1)/PD-L1 protein/protein interactions” (BRISTOL-MYERS SQUIBB COMPANY, priority 2014, dated 2020).

Like-named read-outs stand apart in the source and are kept apart here. Where a SMILES comes first, the peptide text is derived from it. Bridges are numbered along the chain shown (N, C = ends). [ ]: non-standard residue; d: D form. ξ: configuration not given here. Phe(3,4,5-F3) = N[C@@H](Cc1cc(F)c(F)c(F)c1)C(=O)O; Trp(2-Me) = Cc1[nH]c2ccccc2c1C[C@H](N)C(=O)O; NMePhe(4-Me) = CN[C@@H](Cc1ccc(C)cc1)C(=O)O; NMePhe(4-F) = CN[C@@H](Cc1ccc(F)cc1)C(=O)O; Bta = N[C@@H](Cc1csc2ccccc12)C(=O)O; Hyp = O=C(O)[C@@H]1C[C@@H](O)CN1; NMeF = CN[C@@H](Cc1ccccc1)C(=O)O; dHyp = O=C(O)[C@H]1C[C@H](O)CN1; NMehSer = CN[C@@H](CCO)C(=O)O; NMeNle = CCCC[C@H](NC)C(=O)O; Pip = O=C(O)[C@@H]1CCCCN1; dPip = O=C(O)[C@H]1CCCCN1; hSer = N[C@@H](CCO)C(=O)O; NMeA = CN[C@@H](C)C(=O)O; Orn = NCCC[C@H](N)C(=O)O; ξC = NC(CS)C(=O)O; Sar = CNCC(=O)O

T1 sequence (Q9NZQ7 with tags, fused parts or gaps): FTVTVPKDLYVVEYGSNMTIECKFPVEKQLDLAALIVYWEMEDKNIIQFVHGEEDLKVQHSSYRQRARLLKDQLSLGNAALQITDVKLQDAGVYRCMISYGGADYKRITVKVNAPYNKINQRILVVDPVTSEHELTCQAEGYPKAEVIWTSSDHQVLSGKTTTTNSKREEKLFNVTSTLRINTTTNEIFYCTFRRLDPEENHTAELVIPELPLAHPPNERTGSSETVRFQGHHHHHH

As for `CCCC[C@H]1C(=O)N[C@@H](CC(N)=O)C(=O)N2CCC[C@H]2C(=O)N[C@@H](CO)C(=O)N[C@@H](CCO)C(=O)N2CCC[C@H]2C(=O)N[C@@H](Cc2c[nH]c3ccccc23)C(=O)N[C@@H](CCO)C(=O)N[C@@H](Cc2c[nH]c3ccccc23)C(=O)N(C)[C@@H](C)C(=O)N(C)[C@@H](C)C(=O)N[C@@H](CCCCN)C(=O)NC(C(=O)NCC(N)=O)CSCC(=O)N[C@@H](Cc2ccc(O)cc2)C(=O)N1C` (some centres unmarked) [Example 10214] ({CH2CO}-Y[NMeNle]NPS[hSer]PW[hSer]W[NMeA][NMeA]K[ξC]G-NH2; thioether N-14), the IC50 under setting [1] was 1000 to 10000 nM.

In the case of `CCCC[C@H]1C(=O)N2CCCC[C@@H]2C(=O)N[C@@H](CC(=O)O)C(=O)N[C@@H](C)C(=O)N(C)[C@@H](Cc2ccccc2)C(=O)N[C@@H](Cc2ccc(O)cc2)C(=O)N(C)CC(=O)N[C@@H](Cc2c[nH]c3ccccc23)C(=O)N[C@@H](Cc2ccc(O)cc2)C(=O)N[C@@H](CC(C)C)C(=O)N[C@H](C(=O)NCC(N)=O)CSCC(=O)N[C@@H](Cc2ccccc2)C(=O)N(C)[C@@H](Cc2ccccc2)C(=O)N1C` [Example 10084] ({CH2CO}-F[NMeF][NMeNle][dPip]DA[NMeF]Y[Sar]WYLCG-NH2; thioether N-13), the IC50 under setting [1] is 100 to 990 nM.

With `CCCC[C@H]1C(=O)N2C[C@@H](O)C[C@@H]2C(=O)N[C@@H](CC(=O)O)C(=O)N[C@@H](C(C)C)C(=O)N(C)[C@@H](Cc2ccc(C)cc2)C(=O)N[C@@H](CCCN)C(=O)N2CCC[C@@H]2C(=O)N[C@@H](Cc2c[nH]c3ccccc23)C(=O)N[C@@H](Cc2ccc(O)cc2)C(=O)N[C@@H](CC(C)C)C(=O)N[C@H](C(=O)NCC(N)=O)CSCC(=O)N[C@@H](Cc2cc(F)c(F)c(F)c2)C(=O)N(C)[C@@H](Cc2ccccc2)C(=O)N1C` [Example 10119] ({CH2CO}-[Phe(3,4,5-F3)][NMeF][NMeNle][dHyp]DV[NMePhe(4-Me)][Orn][dP]WYLCG-NH2; thioether N-13), the IC50 under setting [1] fell in the range of 100 to 990 nM.

`CCCC[C@H]1C(=O)N2CCC[C@@H]2C(=O)N[C@@H](CO)C(=O)N[C@@H](C(C)C)C(=O)N(C)[C@@H](Cc2ccccc2)C(=O)N[C@@H](CC(=O)O)C(=O)N2CCCC[C@@H]2C(=O)N[C@@H](Cc2c[nH]c3ccccc23)C(=O)N[C@@H](Cc2ccc(O)cc2)C(=O)N[C@@H](CC(C)C)C(=O)N[C@H](C(=O)NCC(N)=O)CSCC(=O)N[C@@H](Cc2cc(F)c(F)c(F)c2)C(=O)N(C)[C@@H](Cc2ccc(F)cc2)C(=O)N1C` [Example 10583] ({CH2CO}-[Phe(3,4,5-F3)][NMePhe(4-F)][NMeNle][dP]SV[NMeF]D[dPip]WYLCG-NH2; thioether N-13): the IC50 under setting [1] was in the range of 1 to 9.9 nM.

Turning to `CCCC[C@H]1C(=O)N2C[C@@H](O)C[C@@H]2C(=O)N[C@@H](CC(=O)O)C(=O)N[C@@H](C(C)C)C(=O)N(C)[C@@H](Cc2ccc(F)cc2)C(=O)N[C@@H](CCCN)C(=O)N2CCC[C@@H]2C(=O)N[C@@H](Cc2c[nH]c3ccccc23)C(=O)N[C@@H](Cc2ccc(O)cc2)C(=O)N[C@@H](CCCN)C(=O)N[C@H](C(=O)NCC(N)=O)CSCC(=O)N[C@@H](Cc2cc(F)c(F)c(F)c2)C(=O)N(C)[C@@H](Cc2ccccc2)C(=O)N1C` [Example 10120] ({CH2CO}-[Phe(3,4,5-F3)][NMeF][NMeNle][dHyp]DV[NMePhe(4-F)][Orn][dP]WY[Orn]CG-NH2; thioether N-13), under setting [1], the IC50 lay in the range of 1 to 9.9 nM.

For `CCCC[C@H]1C(=O)N(C)[C@@H](CCCC)C(=O)N[C@@H](CCC(=O)O)C(=O)N[C@H](C(=O)NCC(N)=O)CSCC(=O)N[C@@H](Cc2ccc(O)cc2)C(=O)N(C)[C@@H](C)C(=O)N[C@@H](CC(=O)O)C(=O)N2CCC[C@H]2C(=O)N[C@@H](Cc2c[nH]cn2)C(=O)N[C@@H](CCC(N)=O)C(=O)N2C[C@H](O)C[C@H]2C(=O)N[C@@H](Cc2c[nH]c3ccccc23)C(=O)N[C@@H](CO)C(=O)N[C@@H](Cc2csc3ccccc23)C(=O)N1C` [Example 5215] ({CH2CO}-Y[NMeA]DPHQ[Hyp]WS[Bta][NMeNle][NMeNle]ECG-NH2; thioether N-14), the IC50 under setting [1] is 1 to 9.9 nM.

Consider `CCCC[C@H]1C(=O)N2C[C@@H](O)C[C@@H]2C(=O)N[C@@H](CC(=O)O)C(=O)N[C@@H](C(C)C)C(=O)N(C)[C@@H](Cc2ccccc2)C(=O)N[C@@H](Cc2ccc(O)cc2)C(=O)N2C[C@@H](O)C[C@@H]2C(=O)N[C@@H](Cc2c[nH]c3ccccc23)C(=O)N[C@@H](Cc2ccc(O)cc2)C(=O)N[C@@H](CC(C)C)C(=O)N[C@H](C(=O)NCC(N)=O)CSCC(=O)N[C@@H](Cc2cc(F)c(F)c(F)c2)C(=O)N(C)[C@@H](Cc2ccccc2)C(=O)N1C` [Example 9273] ({CH2CO}-[Phe(3,4,5-F3)][NMeF][NMeNle][dHyp]DV[NMeF]Y[dHyp]WYLCG-NH2; thioether N-13), for which, under setting [1], the IC50 lay in the range of 1 to 9.9 nM.

As to `CCCC[C@H]1C(=O)N(C)[C@@H](CCCC)C(=O)N[C@@H](CC(=O)O)C(=O)N[C@H](C(=O)NCC(N)=O)CSCC(=O)N[C@@H](Cc2ccc(O)cc2)C(=O)N2CCCC[C@H]2C(=O)N[C@@H](CC(=O)O)C(=O)N2CCC[C@H]2C(=O)N[C@@H](Cc2cnc[nH]2)C(=O)N[C@@H](CCCCN)C(=O)N2C[C@H](O)C[C@H]2C(=O)N[C@@H](Cc2c[nH]c3ccccc23)C(=O)N[C@@H](CCCCN)C(=O)N[C@@H](Cc2c[nH]c3ccccc23)C(=O)N1C` [Example 1259] ({CH2CO}-Y[Pip]DPHK[Hyp]WKW[NMeNle][NMeNle]DCG-NH2; thioether N-14), under setting [1], the IC50 was in the range of 1 to 9.9 nM.

For the compound `CCCC[C@H]1C(=O)N(C)[C@@H](CCCC)C(=O)N[C@@H](CCCNC(=N)N)C(=O)NC(C(=O)NCC(N)=O)CSCC(=O)N[C@@H](Cc2ccc(O)cc2)C(=O)N(C)[C@@H](C)C(=O)N[C@@H](CC(N)=O)C(=O)N2CCC[C@H]2C(=O)N[C@@H](CCO)C(=O)N[C@@H](CO)C(=O)N2CCC[C@H]2C(=O)N[C@@H](Cc2c[nH]c3ccccc23)C(=O)N[C@@H](CO)C(=O)N[C@@H](Cc2csc3ccccc23)C(=O)N1C` (some centres unmarked) [Example 10022] ({CH2CO}-Y[NMeA]NP[hSer]SPWS[Bta][NMeNle][NMeNle]R[ξC]G-NH2; thioether N-14), the IC50 (read-out: HTRF Human PD-L1/PD-1 Binding Assay IC50) amounted to 134 nM.

Turning to `CCCC[C@H]1C(=O)N(C)[C@@H](CCCC)C(=O)N[C@@H](C)C(=O)N[C@H](C(=O)NCC(N)=O)CSCC(=O)N[C@@H](Cc2ccc(O)cc2)C(=O)N(C)[C@@H](C)C(=O)N[C@@H](CC(N)=O)C(=O)N2CCC[C@H]2C(=O)N[C@@H](Cc2cnc[nH]2)C(=O)N[C@@H](CCC(N)=O)C(=O)N2C[C@H](O)C[C@H]2C(=O)N[C@@H](Cc2c[nH]c3ccccc23)C(=O)N[C@@H](CO)C(=O)N[C@@H](Cc2c(C)[nH]c3ccccc23)C(=O)N1C` [Example 1285] ({CH2CO}-Y[NMeA]NPHQ[Hyp]WS[Trp(2-Me)][NMeNle][NMeNle]ACG-NH2; thioether N-14), under setting [1], the IC50 fell in the range of 1 to 9.9 nM.

For the compound `CCCC[C@H]1C(=O)N[C@@H](CC(C)C)C(=O)N[C@H](C(=O)NCC(N)=O)CSCC(=O)N[C@@H](Cc2ccc(O)cc2)C(=O)N(C)[C@@H](C)C(=O)N[C@@H](CC(N)=O)C(=O)N2CCC[C@H]2C(=O)N[C@@H](Cc2c[nH]cn2)C(=O)N[C@@H](CCC(N)=O)C(=O)N2C[C@H](O)C[C@H]2C(=O)N[C@@H](Cc2c[nH]c3ccccc23)C(=O)NCC(=O)N[C@@H](Cc2c[nH]c3ccccc23)C(=O)N(C)[C@@H](CCOC)C(=O)N1C` [Example 10137] ({CH2CO}-Y[NMeA]NPHQ[Hyp]WGW[NMehSer](Me)[NMeNle]LCG-NH2; thioether N-14), under setting [1], the IC50 lay within 10 to 99.9 nM.
